Reference: paper PMC12108418, “Broad-Spectrum Gramicidin S Derivatives with Potent Activity Against Multidrug-Resistant Gram-Negative ESKAPE Pathogens” (Antibiotics, 2025)
Converted amounts (≈) assume the structure as drawn. Like-named read-outs stand apart in the source and are kept apart here. Square brackets hold non-standard residues; d marks the D form. Peptide text beside a SMILES is read from it. Tle = CC(C)(C)[C@H](N)C(=O)O; Orn = NCCC[C@H](N)C(=O)O; Abu = CC[C@H](N)C(=O)O

Tests used:
[1] = system: Acinetobacter baumannii (ATCC 19606); assay type: cell-based
Protocol: (§1) The antibacterial efficacy of peptides was assessed using the broth microdilution method in accordance with Clinical and Laboratory Standards Institute (CLSI) guidelines (M07-A10, 2015 [33]). The minimum inhibitory concentrations (MICs) were determined against Escherichia coli (ATCC 25922), Klebsiella pneumoniae (ATCC 33495), Pseudomonas aeruginosa (ATCC 27853), Acinetobacter baumannii (ATCC 19606), and Staphylococcus aureus (ATCC 29213 and ATCC USA300). Bacterial suspensions were standardised to 5 × 10^4 colony-forming units (CFUs)/well in cation-adjusted Mueller–Hinton broth (CAMHB). Peptides were dissolved in 25% DMSO and serially diluted two-fold across 96-well plates, reaching final concentrations ranging from 256 to 0.125 µg/mL. The wells were inoculated, ensuring a final volume of 100 µL per well, with a DMSO concentration of 1% (v/v) to minimise solvent interference. […] Vancomycin was used as the positive control for S. aureus. Polymyxin B served as the positive control for Gram-negative bacteria. CAMHB with 1% (v/v) DMSO (without peptides) was used as the negative control. All experiments were performed in triplicate (n = 3). Bacterial isolates were stored in tryptone soy broth with 30% glycerol at −80 °C for long-term preservation.

[2] = system: Escherichia coli (ATCC 25922); assay type: cell-based
Protocol: as §1

[3] = system: Klebsiella pneumoniae (ATCC 33495); assay type: cell-based; settings: ATCC 33495
Protocol: as §1

[4] = system: Pseudomonas aeruginosa (ATCC 27853); assay type: cell-based
Protocol: as §1

[5] = Analytical RP-HPLC retention time as measure of hydrophobicity; assay type: physicochemical; settings: measure of global hydrophobicity, Phenomenex Kinetex 2.6 µm C18 (150 × 4.6 mm), 0.7 mL/min, ACN/TFA (100:0.0008) and water/TFA (100:0.001)
Protocol: Peptide purification was carried out via preparative RP-HPLC on an Agilent 1260 Infinity II system (Santa Clara, CA, USA) equipped with a 21.2 × 150 mm Agilent ZORBAX Eclipse Plus C18 column, operating at a flow rate of 25 mL/min. The mobile phase consisted of acetonitrile containing 0.0008% trifluoroacetic acid (v/v) as the organic phase and water with 0.001% TFA as the aqueous phase. […] Analytical HPLC analysis was performed on a Hewlett-Packard Series 1100 instrument using a Phenomenex (Torrance, CA, USA) Kinetex C18 column (150 mm × 4.6 mm, 2.6 µm particle size), under identical solvent conditions, to confirm purity.
HRMS of peptide 1. […] HRMS of peptide 2. […] HRMS of peptide 3. […] HRMS of peptide 4. […] HRMS of peptide 5. […] HRMS of peptide 6. […] HRMS of peptide 7. […] HRMS of peptide 8. […] HRMS of peptide 9. […] HRMS of peptide 10. […] HRMS of peptide 11. […] HRMS of peptide 12. […] HRMS of peptide 13. […] HRMS of peptide 14. […] HRMS of peptide 15. […] HRMS of peptide 16. […] HRMS of peptide 17. […] HRMS of peptide 18. […] HRMS of peptide 19.

[6] = broth microdilution in CAMHB, 5 × 10^4 CFU/well, 1% DMSO, 37 °C, 16–20 h, 256 to 0.125 µg/mL, triplicate (n = 3)

SMILES	MIC A. baumannii ATCC 19606 ([1]; ATCC 19606) [µg/mL]	MIC E. coli ATCC 25922 ([2]; ATCC 25922) [µg/mL]	MIC K. pneumonia ATCC 33495 [3] [µg/mL]	MIC P. aeruginosa ATCC 27853 ([4]; ATCC 27853) [µg/mL]	MIC E. coli ATCC 25922 [2, 6] [µg/mL]	RP-HPLC retention time tR [5] [min]	MIC P. aeruginosa ATCC 27853 [4, 6] [µg/mL]	MIC A. baumannii ATCC 19606 [1, 6] [µg/mL]
CC(C)C[C@@H]1NC(=O)[C@H](CCCN)NC(=O)[C@H](C(C)C)NC(=O)[C@@H]2CCCN2C(=O)[C@@H](Cc2ccccc2)NC(=O)[C@H](CC(C)C)NC(=O)[C@H](CCCN)NC(=O)[C@H](C(C)C)NC(=O)[C@H](Cc2c[nH]c3ccccc23)NC(=O)[C@@H](CCCNC(=N)N)NC1=O [Peptide 8] (cyclo(L[dF]PV[Orn]L[dR]WV[Orn]))	8 (≈ 6.45 µM)	–	16 (≈ 12.9 µM)	32 (≈ 25.8 µM)	8 (≈ 6.45 µM)	–	–	–
CC(C)(C)[C@@H]1NC(=O)[C@H](CCCN)NC(=O)[C@H](C(C)(C)C)NC(=O)[C@@H]2CCCN2C(=O)[C@@H](Cc2ccccc2)NC(=O)[C@H](C(C)(C)C)NC(=O)[C@H](CCCN)NC(=O)[C@H](C(C)(C)C)NC(=O)[C@@H]2CCCN2C(=O)[C@@H](CCCNC(=N)N)NC1=O [Peptide 7] (cyclo([Orn][Tle][dF]P[Tle][Orn][Tle][dR]P[Tle]))	4 (≈ 3.39 µM)	16 (≈ 13.6 µM)	32 (≈ 27.2 µM)	32 (≈ 27.2 µM)	–	16.92	–	–
CC(C)(C)[C@@H]1NC(=O)[C@H](CCCN)NC(=O)[C@H](C(C)(C)C)NC(=O)[C@@H]2CCCN2C(=O)[C@@H](Cc2ccccc2)NC(=O)[C@H](C(C)(C)C)NC(=O)[C@H](CCCN)NC(=O)[C@H](C(C)(C)C)NC(=O)[C@@H]2CCCN2C(=O)[C@@H](Cc2ccccc2)NC1=O [Peptide 1] (cyclo([Orn][Tle][dF]P[Tle][Orn][Tle][dF]P[Tle]))	4 (≈ 3.42 µM)	32 (≈ 27.4 µM)	128 (≈ 109 µM)	64 (≈ 54.7 µM)	–	19.90	–	–
CC(C)C[C@@H]1NC(=O)[C@H](CCCN)NC(=O)[C@H](C(C)C)NC(=O)[C@@H]2CCCN2C(=O)[C@@H](Cc2ccccc2)NC(=O)[C@H](CC(C)C)NC(=O)[C@H](CCCN)NC(=O)[C@H](C(C)C)NC(=O)[C@@H]2CCCN2C(=O)[C@@H](Cc2ccccc2)NC1=O [GS, gramicidin S] (cyclo(V[Orn]L[dF]PV[Orn]L[dF]P))	8 (≈ 7.01 µM)	32 (≈ 28 µM)	128 (≈ 112 µM)	128 (≈ 112 µM)	–	–	–	–
CC(C)C[C@@H]1NC(=O)[C@H](CCCN)NC(=O)[C@H](C(C)C)NC(=O)[C@H](Cc2c[nH]c3ccccc23)NC(=O)[C@@H](Cc2c[nH]c3ccccc23)NC(=O)[C@H](CC(C)C)NC(=O)[C@H](CCCN)NC(=O)[C@H](C(C)C)NC(=O)[C@H](Cc2c[nH]c3ccccc23)NC(=O)[C@@H](Cc2ccccc2)NC1=O [Peptide 5] (cyclo(L[dF]WV[Orn]L[dW]WV[Orn]))	–	–	>256	>256	> 256	–	–	> 256
CC(C)C[C@@H]1NC(=O)[C@H](CCCN)NC(=O)[C@H](C(C)C)NC(=O)[C@H](Cc2c[nH]c3ccccc23)NC(=O)[C@@H](Cc2ccccc2)NC(=O)[C@H](CC(C)C)NC(=O)[C@H](CCCN)NC(=O)[C@H](C(C)C)NC(=O)[C@H](Cc2c[nH]c3ccccc23)NC(=O)[C@@H](Cc2ccccc2)NC1=O [Peptide 4] (cyclo(L[dF]WV[Orn]L[dF]WV[Orn]))	–	–	>256	>256	> 256	–	–	> 256
CC(C)C[C@@H]1NC(=O)[C@H](CCCN)NC(=O)[C@H](C(C)C)NC(=O)[C@@H]2CCCN2C(=O)[C@@H](Cc2ccccc2)NC(=O)[C@H](CC(C)C)NC(=O)[C@H](CCCN)NC(=O)[C@H](C(C)C)NC(=O)[C@H](Cc2c[nH]c3ccccc23)NC(=O)[C@@H](Cc2c[nH]c3ccccc23)NC1=O [Peptide 3] (cyclo(L[dF]PV[Orn]L[dW]WV[Orn]))	128 (≈ 101 µM)	–	>256	>256	> 256	–	–	–
CC(C)C[C@@H]1NC(=O)[C@H](CCCN)NC(=O)[C@H](C(C)C)NC(=O)[C@@H]2CCCN2C(=O)[C@@H](Cc2ccccc2)NC(=O)[C@H](CC(C)C)NC(=O)[C@H](CCCN)NC(=O)[C@H](C(C)C)NC(=O)[C@H](Cc2c[nH]c3ccccc23)NC(=O)[C@@H](Cc2ccccc2)NC1=O [Peptide 2] (cyclo(L[dF]PV[Orn]L[dF]WV[Orn]))	64 (≈ 52 µM)	256 (≈ 208 µM)	>256	>256	–	–	–	–

More lines, now with the values ahead:

MIC A. baumannii ATCC 19606 ([1]; ATCC 19606) [µg/mL]	MIC E. coli ATCC 25922 ([2]; ATCC 25922) [µg/mL]	MIC K. pneumonia ATCC 33495 [3] [µg/mL]	MIC P. aeruginosa ATCC 27853 ([4]; ATCC 27853) [µg/mL]	MIC E. coli ATCC 25922 [2, 6] [µg/mL]	RP-HPLC retention time tR [5] [min]	MIC P. aeruginosa ATCC 27853 [4, 6] [µg/mL]	MIC A. baumannii ATCC 19606 [1, 6] [µg/mL]	SMILES
8 (≈ 6.95 µM)	16 (≈ 13.9 µM)	16 (≈ 13.9 µM)	32 (≈ 27.8 µM)	–	–	–	–	CC(C)C[C@@H]1NC(=O)[C@H](CCCN)NC(=O)[C@H](C(C)C)NC(=O)[C@@H]2CCCN2C(=O)[C@@H](Cc2ccccc2)NC(=O)[C@H](CC(C)C)NC(=O)[C@H](CCCN)NC(=O)[C@H](C(C)C)NC(=O)[C@@H]2CCCN2C(=O)[C@@H](CCCNC(=N)N)NC1=O [Peptide 9] (cyclo(L[dF]PV[Orn]L[dR]PV[Orn]))
8 (≈ 6.92 µM)	32 (≈ 27.7 µM)	128 (≈ 111 µM)	128 (≈ 111 µM)	–	–	–	–	CC(C)C[C@@H]1NC(=O)[C@H](CCCN)NC(=O)[C@H](C(C)(C)C)NC(=O)[C@@H]2CCCN2C(=O)[C@@H](Cc2ccccc2)NC(=O)[C@H](CC(C)C)NC(=O)[C@H](CCCN)NC(=O)[C@H](C(C)C)NC(=O)[C@@H]2CCCN2C(=O)[C@@H](Cc2ccccc2)NC1=O [Peptide 12] (cyclo(L[dF]P[Tle][Orn]L[dF]PV[Orn]))
32 (≈ 27.5 µM)	64 (≈ 55 µM)	64 (≈ 55 µM)	128 (≈ 110 µM)	–	16.03	–	–	CC[C@@H]1NC(=O)[C@@H]2CCCN2C(=O)[C@@H](CCCNC(=N)N)NC(=O)[C@H](CC(C)C)NC(=O)[C@H](CCCN)NC(=O)[C@H](CC)NC(=O)[C@@H]2CCCN2C(=O)[C@@H](Cc2ccccc2)NC(=O)[C@H](CC(C)C)NC(=O)[C@H](CCCNC(=N)N)NC1=O [Peptide 18] (cyclo([Abu][Orn]L[dR]P[Abu]RL[dF]P))
16 (≈ 13.6 µM)	32 (≈ 27.2 µM)	32 (≈ 27.2 µM)	–	–	16.24	64 (≈ 54.3 µM)	–	CC[C@@H]1NC(=O)[C@@H]2CCCN2C(=O)[C@@H](Cc2ccccc2)NC(=O)[C@H](CC(C)C)NC(=O)[C@H](CCCNC(=N)N)NC(=O)[C@H](C(C)C)NC(=O)[C@@H]2CCCN2C(=O)[C@@H](CCCNC(=N)N)NC(=O)[C@H](CC(C)C)NC(=O)[C@H](CCCN)NC1=O [Peptide 16] (cyclo([Abu][Orn]L[dR]PVRL[dF]P))
8 (≈ 6.02 µM)	16 (≈ 12 µM)	16 (≈ 12 µM)	32 (≈ 24.1 µM)	–	–	–	–	CC(C)C[C@@H]1NC(=O)[C@H](CCCN)NC(=O)[C@H](C(C)C)NC(=O)[C@H](Cc2c[nH]c3ccccc23)NC(=O)[C@@H](Cc2ccccc2)NC(=O)[C@H](CC(C)C)NC(=O)[C@H](CCCN)NC(=O)[C@H](C(C)C)NC(=O)[C@H](Cc2c[nH]c3ccccc23)NC(=O)[C@@H](CCCNC(=N)N)NC1=O [Peptide 11] (cyclo(L[dF]WV[Orn]L[dR]WV[Orn]))
8 (≈ 6.45 µM)	16 (≈ 12.9 µM)	32 (≈ 25.8 µM)	32 (≈ 25.8 µM)	–	–	–	–	CC(C)C[C@@H]1NC(=O)[C@H](CCCN)NC(=O)[C@H](C(C)C)NC(=O)[C@@H]2CCCN2C(=O)[C@@H](CCCNC(=N)N)NC(=O)[C@H](CC(C)C)NC(=O)[C@H](CCCN)NC(=O)[C@H](C(C)C)NC(=O)[C@H](Cc2c[nH]c3ccccc23)NC(=O)[C@@H](Cc2ccccc2)NC1=O [Peptide 10] (cyclo(L[dF]WV[Orn]L[dR]PV[Orn]))
